We go through nine compounds from patent US20230086702A1, “SUBSTITUTED 2-AMINO-PYRAZOLYL-[1,2,4]TRIAZOLO[1,5A]PYRIDINE DERIVATIVES AND USE THEREOF” (The Johns Hopkins University, priority 2019, published 2023).

The target of one assay is T1, LZK (Homo sapiens, UniProt O43283).
T1 construct: 10 nM LZK, catalytic domain, Carna Biosiences in assay buffer; purchased Carna Biosciences ('Carna Biosiences' [sic])
T1 sequence (O43283 168-409 limits assumed): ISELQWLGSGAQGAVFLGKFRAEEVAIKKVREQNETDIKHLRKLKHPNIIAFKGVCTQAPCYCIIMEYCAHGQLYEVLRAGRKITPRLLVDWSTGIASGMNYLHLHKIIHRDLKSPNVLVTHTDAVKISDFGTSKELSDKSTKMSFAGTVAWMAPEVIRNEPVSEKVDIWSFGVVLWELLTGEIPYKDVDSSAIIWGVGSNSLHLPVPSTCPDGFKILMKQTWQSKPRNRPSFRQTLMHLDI
Kind of assay: LZK biochemical assay (TR-FRET, MKK7 phosphorylation). The following applies: LZK catalytic domain, MKK7 substrate, 15 μM ATP. As for the experimental part: (§1) LZK assay is a biochemical assay format designed to screen for inhibitors of LZK. Enzymatic activity of LZK is measured by monitoring phosphorylation of the physiological substrate MKK7 (MAP2K7, Dual specificity mitogen-activated protein kinase kinase 7). Phosphorylation is detected by a TR-FRET system whereby His-tagged MKK7 is labeled by a XL665-labeled anti-His antibody (FRET acceptor, emission 665 nm). LZK phosphorylates MKK7 at T275/S277 which is detected by an Eu-labeled anti-phospho-MKK7 (T275/S277) antibody (FRET donor, excitation 340 nm). Phosphorylation of MKK7 results in an increased TR-FRET signal (Ratio XL665-channel/Eu-channel) and inhibition of enzymatic activity of LZK decreases the TR-FRET signal.
All indicated concentrations final concentrations.
(§2) Detection buffer: 25 mM Tris/HCl pH 7.5, 100 mM EDTA, 100 mM NaCl, 200 mM KF, 0.01% Tween 20, 1:500 Smart Block.

The target in the next assay is T2, DLK (Homo sapiens, UniProt Q12852).
T2 construct: 10 nM DLK, catalytic domain, Carna Biosiences; purchased Carna Biosciences ('Carna Biosiences' [sic])
T2 sequence (Q12852 125-366 limits assumed): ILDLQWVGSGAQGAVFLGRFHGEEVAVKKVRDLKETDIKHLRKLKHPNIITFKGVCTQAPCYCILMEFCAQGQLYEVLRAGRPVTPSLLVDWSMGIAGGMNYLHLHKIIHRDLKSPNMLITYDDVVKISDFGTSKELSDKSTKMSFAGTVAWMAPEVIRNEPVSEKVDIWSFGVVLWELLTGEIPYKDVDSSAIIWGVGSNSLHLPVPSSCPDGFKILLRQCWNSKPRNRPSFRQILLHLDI
Kind of assay: DLK biochemical assay (TR-FRET, MKK7 phosphorylation). The following applies: DLK catalytic domain, MKK7 substrate, 60 μM ATP. Here is the method: as §1, with “DLK assay” for “LZK assay”, “of DLK.” for “of LZK.”, “of DLK” for “of LZK”, “nm). DLK” for “nm). LZK”, “at T275/S277,” for “at T275/S277”
All indicated concentrations are final concentrations.
as §2
On the technique in general: In TR-FRET formats the signal depends on donor and acceptor labels being close together.

As usually defined, the IC50 is the concentration needed to halve the response being measured. Lower therefore signals greater potency. For `CCC(c1ccc(N2CCOCC2)cc1)n1cc(-c2cc(C(=O)N[C@@H](C)CC)c3nc(N)nn3c2)cn1` (mixture of isomers) [Example I-47, 2-Amino-N-[(2S)-butan-2-yl]-6-(1-{1-[4-(morpholin-4-yl)phenyl]propyl}-1H-pyrazol-4-yl)[1,2,4]triazolo[1,5-a]pyridine-8-carboxamide], the IC50 against LZK stood at 40 nM; on DLK it was 3.8 nM.
The like results for `CC[C@H](C)NC(=O)c1cc(-c2cnn(C(c3ccccc3)C3CCOCC3)c2)cc2nc(N)nn12` (mixture of isomers) [Example I-51, 2-Amino-N-[(2S)-butan-2-yl]-7-{1-[phenyl(tetrahydro-2H-pyran-4-yl)methyl]-1H-pyrazol-4-yl}[1,2,4]triazolo[1,5-a]pyridine-5-carboxamide] were, in that order, 8.7 nM and 1.8 nM.
With `CCC(c1ccc(F)cn1)n1cc(-c2cc(C(=O)N[C@@H](C)CC)c3nc(N)nn3c2)cn1` (mixture of isomers) [Example I-55, 2-Amino-N-[(2S)-butan-2-yl]-6-{1-[1-(5-fluoropyridin-2-yl)propyl]-1H-pyrazol-4-yl}[1,2,4]triazolo[1,5-a]pyridine-8-carboxamide], the IC50 at LZK stood at 49 nM; at DLK it was 6.7 nM.
Regarding `CCC(c1cncc(Cl)c1)n1cc(-c2cc(C(=O)N[C@@H](C)CC)c3nc(N)nn3c2)cn1` (mixture of isomers) [Example I-58, 2-Amino-N-[(2S)-butan-2-yl]-6-{1-[1-(5-chloropyridin-3-yl)propyl]-1H-pyrazol-4-yl}[1,2,4]triazolo[1,5-a]pyridine-8-carboxamide], the IC50 on LZK was found to be 16 nM; against DLK, 1.6 nM.
Turning to `CC[C@H](C)NC(=O)c1cc(-c2cnn(C(c3cncc(Cl)c3)C(C)C)c2)cn2nc(N)nc12` (mixture of isomers) [Example I-61, 2-Amino-N-[(2S)-butan-2-yl]-6-{1-[1-(5-chloropyridin-3-yl)-2-methylpropyl]-1H-pyrazol-4-yl}[1,2,4]triazolo[1,5-a]pyridine-8-carboxamide], the IC50 on LZK came out at 3.3 nM; against DLK it was 0.6 nM.
Regarding `CCC(c1ccc(C(F)F)nc1)n1cc(-c2cc(C(=O)N[C@@H](C)CC)c3nc(N)nn3c2)cn1` (mixture of isomers) [Example I-64, 2-Amino-N-[(2S)-butan-2-yl]-6-(1-{1-[6-(difluoromethyl)pyridin-3-yl]propyl}-1H-pyrazol-4-yl)[1,2,4]triazolo[1,5-a]pyridine-8-carboxamide], the IC50 on LZK came out at 7 nM; against DLK it was 1.7 nM.
Regarding `CC[C@H](C)NC(=O)c1cc(-c2cnn(C(c3ccc(C(F)F)nc3)C(C)C)c2)cn2nc(N)nc12` (mixture of isomers) [Example I-67, 2-Amino-N-[(2S)-butan-2-yl]-6-(1-{1-[6-(difluoromethyl)pyridin-3-yl]-2-methylpropyl}-1H-pyrazol-4-yl)[1,2,4]triazolo[1,5-a]pyridine-8-carboxamide], the IC50 on LZK came to 5.6 nM; against DLK, 1.1 nM.
Consider `CCC(c1ccc(C(F)(F)F)nc1)n1cc(-c2cc(C(=O)N[C@@H](C)CC)c3nc(N)nn3c2)cn1` (mixture of isomers) [Example I-70, 2-Amino-N-[(2S)-butan-2-yl]-6-(1-{1-[6-(trifluoromethyl)pyridin-3-yl]propyl}-1H-pyrazol-4-yl)[1,2,4]triazolo[1,5-a]pyridine-8-carboxamide], for which the values for the IC50 against LZK and on DLK were 6.5 nM and 2.1 nM, respectively.
On to `CC[C@H](C)NC(=O)c1cc(-c2cnn(C(c3ccc(C(F)(F)F)nc3)C(C)C)c2)cn2nc(N)nc12` (mixture of isomers) [Example I-73, 2-Amino-N-[(2S)-butan-2-yl]-6-(1-{2-methyl-1-[6-(trifluoromethyl)pyridin-3-yl]propyl}-1H-pyrazol-4-yl)[1,2,4]triazolo[1,5-a]pyridine-8-carboxamide], for which the IC50 against LZK was determined as 5.8 nM; against DLK, 1.6 nM.
